The test system of assay [1] is human platelet rich plasma (PRP). In words: ADP induced platelet aggregation assay. Conditions: Homo sapiens, Platelet, read-out: PA IC50 (μM) @ 10 μM ADP, platelet aggregation induced by 10 μM ADP, human PRP.
Assay [2] concerns the target cloned human P2Y1 receptors (Homo sapiens (Human), UniProt P47900). In words: Binding Assay B: Scintillation Proximity Assay (SPA) for P2Y1 binding. The settings on record: SPA, [33P] 2MeS-ADP displacement; read-out: P2Y1 Ki (nM) using binding assay B. The method, then: A SPA membrane binding assay was used to identify inhibitors of [^33P] […] Binding reactions were performed in 384-well OptiPlates (PerkinElmer Life Sciences, Cat #6007299) in a volume of 50 μL containing ˜15 fmol of P2Y1 receptor (1.7 μg of total protein), 0.3 nM [^33P] […] Reactions were allowed to proceed to completion at room temperature for 1 hour followed by centrifugation of the plate for 5 min. About 40 μL of the aqueous solution was aspirated. Plates were sealed and the [^33P]
On the technique in general: Scintillation proximity formats need no separation of bound from free tracer.

SMILES strings stand for the structures.

Chain of cloned human P2Y1 receptors (P47900 whole entry): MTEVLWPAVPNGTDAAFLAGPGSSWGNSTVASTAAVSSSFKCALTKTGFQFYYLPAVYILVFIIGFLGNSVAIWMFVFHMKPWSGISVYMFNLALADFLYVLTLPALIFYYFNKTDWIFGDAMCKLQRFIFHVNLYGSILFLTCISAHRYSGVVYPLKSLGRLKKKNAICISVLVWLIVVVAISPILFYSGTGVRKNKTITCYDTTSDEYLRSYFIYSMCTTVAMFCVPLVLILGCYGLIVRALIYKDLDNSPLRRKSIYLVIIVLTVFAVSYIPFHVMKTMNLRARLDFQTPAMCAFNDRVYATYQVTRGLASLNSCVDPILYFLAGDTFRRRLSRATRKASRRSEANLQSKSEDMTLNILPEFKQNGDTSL

As to `CC(C)(C)CN1CCC2(CC1)CN(c1ccccc1NC(=O)Nc1nc3ccc(F)cc3s1)c1c(O)ccc(C(F)(F)F)c12` [Example 3, 1-(6-Fluorobenzo[d]thiazol-2-yl)-3-(2-(7-hydroxy-1′-neopentyl-4-(trifluoromethyl)spiro[indoline-3,4′-piperidine]-1-yl)phenyl)urea], the IC50 (usually the concentration needed to halve the response being measured) in assay [1] was determined as 0.1 µM. Also, the Ki (in general, a dissociation constant, usually derived from enzyme kinetics or from competition with a known ligand) in assay [2] was determined as 8.9 nM.

For the compound `CC(C)CN1CCC2(CC1)CN(c1ccccc1NC(=O)Nc1nc3ccc(F)cc3s1)c1c(O)ccc(Cl)c12` [Example 4, 1-(2-(4-Chloro-7-hydroxy-1′-isobutylspiro[indoline-3,4′-piperidine]-1-yl)phenyl)-3-(6-fluorobenzo[d]thiazol-2-yl)urea], in assay [1], the half-inhibitory concentration (IC50) came out at 0.4 µM. Also, the Ki in assay [2] came to 9.9 nM.

For `CC(C)(C)CN1CCC2(CC1)CN(c1ccccc1NC(=O)Nc1ccc(C(C)(C)C)cc1)c1c(O)cccc12` [Example 5, 1-(4-tert-Butylphenyl)-3-(2-(7-hydroxy-1′-neopentylspiro[indoline-3,4′-piperidine]-1-yl)phenyl)urea], the IC50 in assay [1] was found to be 0.4 µM. Besides, the Ki in assay [2] is 8.3 nM.

For the compound `CC(C)(C)CN1CCC2(CC1)CN(c1ccccc1NC(=O)Nc1ccc(OC(F)(F)F)cc1)c1c(O)ccc(F)c12` [Example 6, 1-(2-(4-Fluoro-7-hydroxy-1′-neopentylspiro[indoline-3,4′-piperidine]-1-yl)phenyl)-3-(4-(trifluoromethoxy)phenyl)urea], the IC50 in assay [1] came out at 0.9 µM. Besides, in assay [2], the Ki worked out at 4.4 nM.

With `CC(C)(C)CN1CCC2(CC1)CN(c1ccccc1NC(=O)Nc1ccc(C(C)(C)C)cc1)c1c(O)ccc(F)c12` [Example 7, 1-(4-tert-Butylphenyl)-3-(2-(4-fluoro-7-hydroxy-1′-neopentylspiro[indoline-3,4′-piperidine]-1-yl)phenyl)urea], the IC50 in assay [1] was determined as 0.6 µM. Moreover, the Ki in assay [2] stood at 4 nM.

In the case of `CC(C)(C)CN1CCC2(CC1)CN(c1ccccc1NC(=O)Nc1ccc(OC(F)(F)F)cc1)c1c(O)ccc(C#N)c12` [Example 8, 1-(2-(4-Cyano-7-hydroxy-1′-neopentylspiro[indoline-3,4′-piperidine]-1-yl)phenyl)-3-(4-(trifluoromethoxy)phenyl)urea], the IC50 in assay [1] stood at 1.1 µM. For the same compound, the Ki in assay [2] is 5.7 nM.

As for `CC(C)(C)CN1CCC2(CC1)CN(c1ccccc1NC(=O)Nc1ccc(C(C)(C)C)cc1)c1c(O)cc(F)c(F)c12` [Example 9, 1-(4-tert-Butylphenyl)-3-(2-(4,5-difluoro-7-hydroxy-1′-neopentylspiro [indoline-3,4′-piperidine]-1-yl)phenyl)urea], the IC50 in assay [1] was found to be 0.9 µM. For the same compound, the Ki in assay [2] was determined as 10.5 nM.

Turning to `CC(C)(C)CN1CCC2(CC1)CN(c1ccccc1NC(=O)Nc1ccc(OC(F)(F)F)cc1)c1c(O)ccc(C(F)(F)F)c12` [Example 10, 1-(2-(7-Hydroxy-1′-neopentyl-4-(trifluoromethyl)spiro[indoline-3,4′-piperidine]-1-yl)phenyl)-3-(4-(trifluoromethoxy)phenyl)urea], the IC50 in assay [1] is 0.1 µM. In addition, the Ki in assay [2] was determined as 4.5 nM.

`CC(C)(C)CN1CCC2(CC1)CN(c1ccccc1NC(=O)Nc1ccc(C(C)(C)C)cc1)c1c(O)ccc(C(F)(F)F)c12` [Example 11, 1-(4-tert-Butylphenyl)-3-(2-(7-hydroxy-1′-neopentyl-4-(trifluoromethyl)spiro[indoline-3,4′-piperidine]-1-yl)phenyl)urea]: in assay [1], the IC50 was 0.1 µM. For the same compound, the Ki in assay [2] was found to be 7.9 nM.

With `CC(C)(C)CN1CCC2(CC1)CN(c1ncccc1NC(=O)Nc1ccc(OC(F)(F)F)cc1)c1c(O)ccc(C(F)(F)F)c12` [Example 12, 1-(2-(7-Hydroxy-1′-neopentyl-4-(trifluoromethyl)spiro[indoline-3,4′-piperidine]-1-yl)pyridin-3-yl)-3-(4-(trifluoromethoxy)phenyl)urea], in assay [1], the IC50 was found to be 1.4 µM. For the same compound, the Ki in assay [2] came to 5.6 nM.

As to `CC(C)(C)CN1CCC2(CC1)CN(c1ccccc1NC(=O)Nc1ccc(OC(F)(F)F)cc1)c1c2ccc(F)c1O` [Example 14, 1-(2-(6-Fluoro-7-hydroxy-1′-neopentylspiro[indoline-3,4′-piperidine]-1-yl)phenyl)-3-(4-(trifluoromethoxy)phenyl)urea], the IC50 in assay [1] came to 2.1 µM. Besides, the Ki in assay [2] stood at 12.8 nM.

As to `CC(C)(C)CN1CCC2(CC1)CN(c1ccccc1NC(=O)Nc1ccc(F)c(F)c1)c1c(O)ccc(C(F)(F)F)c12` [Example 15, 1-(3,4-Difluorophenyl)-3-(2-(7-hydroxy-1′-neopentyl-4-(trifluoromethyl)spiro[indoline-3,4′-piperidine]-1-yl)phenyl)urea], the IC50 in assay [1] was found to be 0.5 µM. Also, the Ki in assay [2] stood at 5.1 nM.

In the case of `CCSc1nsc(NC(=O)Nc2ccccc2N2CC3(CCN(CC(C)(C)C)CC3)c3c(C(F)(F)F)ccc(O)c32)n1` [Example 16, 1-(3-(Ethylthio)-1,2,4-thiadiazol-5-yl)-3-(2-(7-hydroxy-1′-neopentyl-4-(trifluoromethyl)spiro[indoline-3,4′-piperidine]-1-yl)phenyl)urea], in assay [1], the IC50 stood at 0.3 µM. In assay [2], the Ki is 8.1 nM.

Consider `CC(C)(C)CN1CCC2(CC1)CN(c1ccccc1NC(=O)Nc1ccc(OC(F)F)cc1)c1c(O)ccc(C(F)(F)F)c12` [Example 17, 1-(4-(Difluoromethoxy)phenyl)-3-(2-(7-hydroxy-1′-neopentyl-4-(trifluoromethyl)spiro[indoline-3,4′-piperidine]-1-yl)phenyl)urea], for which the IC50 in assay [1] was found to be 0.4 µM. The Ki in assay [2] is 9 nM.

For the compound `CC(C)(C)CN1CCC2(CC1)CN(c1ccccc1NC(=O)Nc1csc(Cl)n1)c1c(O)ccc(C(F)(F)F)c12` [Example 18, 1-(2-Chlorothiazol-4-yl)-3-(2-(7-hydroxy-1′-neopentyl-4-(trifluoromethyl)spiro[indoline-3,4′-piperidine]-1-yl)phenyl)urea], in assay [1], the IC50 came to 0.1 µM. Besides, in assay [2], the Ki is 6.2 nM.

In the case of `CC(C)c1nsc(NC(=O)Nc2ccccc2N2CC3(CCN(CC(C)(C)C)CC3)c3c(C(F)(F)F)ccc(O)c32)n1` [Example 19, 1-(2-(7-Hydroxy-1′-neopentyl-4-(trifluoromethyl)spiro[indoline-3,4′-piperidine]-1-yl)phenyl)-3-(3-isopropyl-1,2,4-thiadiazol-5-yl)urea], the IC50 in assay [1] was found to be 0.2 µM. In assay [2], the Ki was 7.5 nM.

For `CC(C)(C)CN1CCC2(CC1)CN(c1ccccc1NC(=O)Nc1ccc(F)cc1F)c1c(O)ccc(C(F)(F)F)c12` [Example 20, 1-(2,4-Difluorophenyl)-3-(2-(7-hydroxy-1′-neopentyl-4-(trifluoromethyl)spiro[indoline-3,4′-piperidine]-1-yl)phenyl)urea], in assay [1], the IC50 worked out at 0.2 µM. In addition, in assay [2], the Ki amounted to 3.2 nM.

Turning to `CC(C)(C)CN1CCC2(CC1)CN(c1ccccc1NC(=O)Nc1nc3ccc(Cl)cc3s1)c1c(O)ccc(C(F)(F)F)c12` [Example 21, 1-(6-Chlorobenzo[d]thiazol-2-yl)-3-(2-(7-hydroxy-1′-neopentyl-4-(trifluoromethyl)spiro[indoline-3,4′-piperidine]-1-yl)phenyl)urea], the IC50 in assay [1] came to 0.4 µM. The Ki in assay [2] was 30.9 nM.

As for `CC(C)(C)CN1CCC2(CC1)CN(c1ccccc1NC(=O)Nc1ccc(C(F)(F)F)cc1)c1c(O)ccc(C(F)(F)F)c12` [Example 22, 1-(2-(7-Hydorxy-1′-neopentyl-4-(trifluoromethyl)spiro[indoline-3,4′-piperidine]-1-yl)phenyl)-3-(4-(trifluoromethyl)phenyl)urea], the IC50 in assay [1] was 0.2 µM. Also, the Ki in assay [2] stood at 4.4 nM.

For the compound `CC(C)(C)CN1CCC2(CC1)CN(c1ccccc1NC(=O)Nc1ccc(C(F)(F)F)nc1)c1c(O)ccc(C(F)(F)F)c12` [Example 23, 1-(2-(7-Hydroxy-1′-neopentyl-4-(trifluoromethyl)spiro[indoline-3,4′-piperidine]-1-yl)phenyl)-3-(6-(trifluoromethyl)pyridin-3-yl)urea], the IC50 in assay [1] is 1.1 µM. In assay [2], the Ki was 8 nM.

Consider `CC(C)(C)CN1CCC(NC(=O)Nc2ccccc2N2CC3(CCN(CC(C)(C)C)CC3)c3c(C(F)(F)F)ccc(O)c32)CC1` [Example 24, 1-(2-(7-Hydroxy-1′-neopentyl-4-(trifluoromethyl)spiro[indoline-3,4′-piperidine]-1-yl)phenyl)-3-(1-neopentylpiperidin-4-yl)urea], for which the IC50 in assay [1] is 0.4 µM. For the same compound, the Ki in assay [2] is 14.8 nM.

Consider `Cc1nc(NC(=O)Nc2ccccc2N2CC3(CCN(CC(C)(C)C)CC3)c3c(C(F)(F)F)ccc(O)c32)cs1` [Example 25, 1-(2-(7-Hydroxy-1′-neopentyl-4-(trifluoromethyl)spiro[indoline-3,4′-piperidine]-1-yl)phenyl)-3-(2-methylthiazol-4-yl)urea], for which, in assay [1], the IC50 came out at 0.1 µM. In assay [2], the Ki was 4.9 nM.

`CC(C)(C)CN1CCC2(CC1)CN(c1ccccc1NC(=O)Nc1csc(Cl)c1)c1c(O)ccc(C(F)(F)F)c12` [Example 26, 1-(5-Chlorothiophen-3-yl)-3-(2-(7-hydroxy-1′-neopentyl-4-(trifluoromethyl)spiro[indoline-3,4′-piperidine]-1-yl)phenyl)urea]: the half-inhibitory concentration (IC50) in assay [1] came out at 0.2 µM. Also, the Ki in assay [2] was 7.3 nM.

Consider `CC(C)(C)CN1CCC2(CC1)CN(c1ccccc1NC(=O)NC1CCC(C(C)(C)C)CC1)c1c(O)ccc(C(F)(F)F)c12` (stereo not drawn) [Example 27, 1-(4-tert-Butylcyclohexyl)-3-(2-(7-hydroxy-1′-neopentyl-4-(trifluoromethyl)spiro[indoline-3,4′-piperidine]-1-yl)phenyl)urea], for which, in assay [1], the IC50 was determined as 0.7 µM. The Ki in assay [2] was 9.6 nM.

Source of the values: patent publication US9428504B2, “7-hydroxy-spiropipiperidine indolinyl antagonists of P2Y1 receptor” (BRISTOL-MYERS SQUIBB COMPANY, priority 2012, dated 2016).
